Values quoted from earlier work in US20130034537A1, “SIMULTANEOUS CO-TREATMENT OF PHYSICAL AND MENTAL SYMPTOMS RELATED TO SEVERE MENTAL DISORDERS BY A SPECIALLY FERMENTED SOY FORMULATION (FSWW08)” (priority 2010, published 2013).

Assays:
immunity = conditions: for Magnitude of immunity, ratio: DHEA = 1
[1] = male steroid hormones
adrenals = conditions: rats
schizophrenic men = conditions: oral 2 mg

C[C@]12CC[C@H](O)CC1=CC[C@@H]1[C@@H]2CC[C@]2(C)C(=O)CC[C@@H]12 [DHEA, dehydroepiandrosterone]
Magnitude of immunity, ratio (immunity): 1

C[C@]12CCC(=O)C[C@@H]1CC[C@@H]1[C@@H]2CC[C@]2(C)[C@@H](O)CC[C@@H]12 [DHT, dihydrotestosterone]
activity relative to testosterone [1]: 10 times

O=c1c(-c2ccc(O)cc2)coc2cc(O)cc(O)c12 [genistein]
DHEA production (adrenals): supporting | aldosterone production (adrenals): inhibiting | corticosterone production (adrenals): inhibiting

C[C@]12CCC(O)CC1=CC(O)[C@@H]1[C@@H]2CC[C@]2(C)C(O)CC[C@@H]12 (stereo partly drawn) [Androstenetriol]
Magnitude of immunity, ratio (immunity): 1000

CCCCC(=O)O[C@H]1CC[C@H]2[C@@H]3CCc4cc(O)ccc4[C@H]3CC[C@]12C [estradiol valeriate]
patients who failed to increase estradiol levels (schizophrenic men): 27% | testosterone (schizophrenic men): reduce

C[C@]12CCC(O)C[C@@H]1CC[C@@H]1[C@@H]2CC[C@]2(C)[C@@H](O)CC[C@@H]12 (stereo partly drawn) [androstanediol]
potency in mediating immunity compared to DHEA (immunity): 100 times
